Test results published in patent US10738044B2, “Therapeutic compound and use in therapy” (PROXIMAGEN, LLC, priority 2015, dated 2020).

Columns and labels:
[1] = system: male DBA/1J mice, collagen-induced arthritis; assay: Established mouse collagen-induced arthritis model; type: in vivo
Description: Example 1 was assessed in an established mouse collagen-induced arthritis model. Disease was induced in male DBA/1J mice by means of a subcutaneous injection of a collagen (bovine)/CFA emulsion at the base of the tail. Each paw was scored daily and the sum of all four scores was recorded as the Arthritic Index (AI). The maximum possible AI was 16 (0=no visible effects of arthritis, 1=edema and/or erythema of one digit, 2=edema and/or erythema of 2 joints, 3=edema and/or erythema of more than 2 joints, 4=severe arthritis of the entire paw and digits including limb deformation and ankylosis of the joint). As animals developed disease, they were sorted into treatment groups with AI in the range of 2-6 and an average group AI of 3.6 prior to initiation of the dosing regimen. Example 1 (10, 50 and 100 mg/kg) was administered orally twice daily from day 30 post-inoculation.
Histological evaluation of the rear right hind limbs was also carried out. The joints were scored for severity of arthritis (inflammation, pannus, cartilage damage and bone damage) by a board certified pathologist, who was blind to the assigned treatment.

[2] = system: female SJL mice, experimental allergic encephalomyelitis; assay: Mouse PLP139-151 relapsing-remitting EAE model; type: in vivo; details: 3, 10, 30 or 100 mg/kg orally twice daily, therapeutic; FIG. 7
Description: Example 1 was assessed in a PLP139-151 remitting and relapsing model of experimental allergic encephalomyelitis (EAE) in female SJL mice as an indicator of a potential treatment for multiple sclerosis in humans.
Adjuvant was prepared by homogenizing 100 mg Mycobacterium tuberculosis H37 RA in 50 mL Incomplete Freund's Adjuvant to prepare a 2 mg/mL suspension which was stored at 4-8° C. 50 ug pertussis toxin from Bordetella pertussis was reconstituted in 50 mL sterile PBS to prepare a 1 ug/mL solution which was kept in an ice bath. 10.35 mg PLP139-151 was dissolved in 10.35 mL sterile PBS to prepare a 1 mg/mL solution. 10 mL of PLP139-151 was emulsified with 10 mL adjuvant in ten batches in an ice bath to prepare a 0.5 mg/mL PLP139-151/1 mg/mL M. tuberculosis H37 RA emulsion which was kept in an ice bath. […] On day 0, 70 mice were injected subcutaneously in both flanks with 0.1 mL of the PLP139-151/CFA emulsion. Two hours later the mice were injected by intraperitoneal route with 0.2 mL pertussis toxin (200 ng/mouse). The mice were returned to routine maintenance with no adverse effects. On day 2, the mice were injected IP with 0.2 mL of pertussis toxin (200 ng/mouse). From day 7 the mice were weighed and scored for signs of disease as follows: 0=no obvious signs of motor dysfunction compared to non-immunized control; 1=limp or floppy tail; 2=limp tail and weakness in hind legs; 3=limp tail and complete paralysis of legs or limp tail with paralysis of one front and one hind leg; 4=limp tail, complete hind leg and partial front leg paralysis; 5=complete hind and complete front leg paralysis. On days 10-12, the mice were sorted into treatment groups based upon average score and twice daily oral administration of Example 1 (3, 10, 30 or 100 mg/kg), dexamethasone or vehicle (n=10 per group) was initiated. The disease score was monitored for 20 days.

[3] = system: DSS-treated mice, established colitis; assay: Chronic DSS-induced colitis mouse model; type: in vivo
Description: Example 1 was assessed in the treatment of established disease in the chronic Dextran Sulphate (DSS)-induced colitis model. DSS was administered in the drinking water as a 3% solution for five days. DSS-treated mice were orally administered vehicle, 6-Thioguanine (0.5 mg/kg) or Example 1 (10 mg/kg, 30 mg/kg or 100 mg/kg) b.i.d. from Days 6 to 19. A no treatment control group of 5 mice was also used. Body weights were measured daily for 19 days and animals were assessed visually for the presence of diarrhea and/or bloody stool. All animals underwent video endoscopy on Days 5 (baseline), 12 and 19 to assess the extent of colitis and whether any beneficial treatment effects could be observed. All animals were euthanized on Day 19 to obtain colon tissues for pathology examination.

[4] = system: female C57BL/6 mice, CCl4-induced liver fibrosis; assay: Carbon tetrachloride induced liver fibrosis model; type: in vivo, mouse; details: 100 mg/kg bid orally for 28 days; FIG. 8
Description: Example 1 was assessed in a carbon tetrachloride (CCl4)-induced Liver Fibrosis Model. 7 week old female C57BL/6 mice were divided into four groups (n=5/group for one Control group to act as non-disease comparator and n=10/group for three CCl4-treated groups based on their body weight the day before the start of the treatment. Thirty mice were intraperitoneally administered 5% CCl4 in mineral oil at a volume of 100 uL twice a week (days 0, 4, 11, 14, 18, 21 and 25). Five mice intraperitoneally administered mineral oil instead of the 5% CCl4, served as the non-diseased control group. Example 1 (100 mg/kg bid), Valsartan (20 mg/kg qd, positive control) and Vehicle were administered orally (dose volume=10 mL/kg) for 28 days (days −1 to 27). […] For quantitative analysis of fibrosis area, bright field images of Sirius red-stained section was blindly captured using a digital camera at 100-fold magnification, and the Sirius red-stained positive areas in 5 fields/4 um section/mouse were measured using ImageJ software (National Institute of Health, USA) and in accordance with the following expression: (collagen area/total area-vascular lumen area)×100. […] Results were expressed as mean±SD. Comparison of the Valsartan group and Vehicle group in fibrosis area was assessed with student's t-test to confirm whether Valsartan worked as a positive control.

[5] = system: C57BL6 mice, laser-induced choroidal burns; assay: Mouse choroidal neovascularisation model; type: in vivo; details: topical 5 uL instillations tid days 0 to 12; day 12; FIG. 10
Description: Example 1 was assessed in a mouse choroidal neovascularisation model. Pigmented mice (C57BL6 strain, n=15 per group) each were induced with 3 choroidal burns in the right eyes using a 532 nm photocoagulator. Example 1 and vehicle were dosed topically using 5 uL instillations tid from days 0 to 12. On day 12, lesion size was determined by isolectine B4 immunostaining on flatmount choroids from the treated eyes and confocal microscopy for determining the size of the lesion.

[6] = system: C57BL/10ScSn-Dmdx/J male mice; assay: Murine model of Duchenne's muscular dystrophy (mdx mice); type: in vivo, mouse; details: 100 mg/kg po bid for 4 weeks; FIG. 11
Description: C57BL/10ScSn-Dmdx/J male mice were dosed from 27 days for 4 weeks with either vehicle (n=5), prednisolone (1 mg/kg ip qd, n=8) or Example 1 (100 mg/kg po bid, n=8). At 8 weeks of age, blood was collected by retro-orbital bleeding, and mice were humanely euthanized by CO2 asphyxiation. One triceps surae was collected fresh and processed for immune cell sorting, one tibialis anterior was preserved in RNALater for RNA extraction, one whole hind limb and the diaphragm were fixed in 2% paraformaldehyde overnight at 4° C. for paraffin embedding and histology stains. Serum was prepared immediately after collection and frozen at −20° C. At the end of the study, all serum samples were dosed for Creatine Kinase on a Beckman Coulter AU Clinical Chemistry analyzer following manufacturer instructions (a modification of the International Federation of Clinical Chemistry method).
For immune cell sorting, muscle samples were enzymatically and mechanically dissociated following manufacturer instructions (Skeletal Muscle Dissociation KitCatalog no. 130-098-305, Miltenyi Biotec). Cells were stained with the following antibodies:
Stained cells were analyzed on a BD LSR II cytometer and counts of different populations were expressed in percentage of the number of live cells counted. Total RNAs were extracted with a modification of the Trizol method, reverse transcribed, and mRNAs of TGFα, and the following inflammation markers were quantified by the SYBR green method with GAPDH as a normalizer: […]

[7] = system: serum TNFα in female Swiss Webster mice; assay: Murine model of LPS-induced cytokine release; type: in vivo, mouse; details: oral administration one hour prior to LPS challenge; serum one hour after LPS; FIG. 9
Description: Example 1 was assessed in an LPS-induced cytokine release assay. One hour after administration of Example 1, female Swiss Webster mice (n=5 per group) were injected intraperitoneally with 2 mL/kg LPS (1.5 mg/mL). One hour after LPS injection the mice were anesthetized and exsanguinated into pre-chilled serum separator microtainer tubes. The blood was processed to serum which was stored at −80° C. The frozen serum aliquots were thawed to room temperature, diluted 1:5 with sterile saline and assayed by ELISA for TNFα.

[8] = 100 mg/kg orally twice daily, rear right hind limbs, FIG. 2

CC(C)[C@H]1c2[nH]cnc2CCN1C(=O)OCc1ccc(OCCCN(C)C)cc1 [Example 1, {4-[3-(Dimethylamino)propoxy]phenyl}methyl (4S)-4-(propan-2-yl)-3H,4H,5H,6H,7H-imidazo[4,5-c]pyridine-5-carboxylate]
reduction in disease severity (Arthritic Index) ([1]; 100 mg/kg orally twice daily, after two weeks of therapy, FIG. 1): 46% | inhibition of bone resorption (joint histology) [1, 8]: 84% | inhibition of cartilage damage (joint histology) [1, 8]: 60% | inhibition of inflammation (joint histology) [1, 8]: 60% | inhibition of pannus formation (joint histology) [1, 8]: 84% | rate of disease development (Arthritic Index) ([1]; 10, 50 and 100 mg/kg orally twice daily from day 30 post-inoculation, FIG. 1): dose-dependent decrease in the rate of disease development | disease severity (EAE score) [2]: decrease in disease severity | time to disease relapse [2]: increased time to disease relapse | time to disease remission [2]: dose-dependent decrease in the time to disease remission | magnitude of the effect relative to positive control 6-Thioguanine (0.5 mg/kg) ([3]; 100 mg/kg orally b.i.d.): comparable to the effect seen with the positive control | overall body weight ([3]; 100 mg/kg orally b.i.d., FIG. 3): statistically significant effects | endoscopy scores on day 12 ([3]; 100 mg/kg orally b.i.d., FIG. 4): statistically significant effects | colon weight ([3]; 100 mg/kg orally b.i.d., FIG. 5): statistically significant effects | diarrhea ([3]; 100 mg/kg orally b.i.d., FIG. 6): statistically significant effects | overall effect in the DSS colitis model ([3]; 10, 30 or 100 mg/kg orally b.i.d., Days 6 to 19): dose-dependent improvement | deposition of collagen in the liver (Sirius red staining) [4]: significantly reduced | lesion size versus vehicle [5]: significant reduction | B cells [6]: significant reduction | T cells [6]: significant reduction | TGFβ [6]: significant reduction | cytokines [6]: significant reduction | macrophages [6]: significant reduction | pro-inflammatory monocytes [6]: significant reduction | serum TNFα levels relative to vehicle control [7]: statistically significant dose-dependent decrease
